Results on 31 compounds are retold here after US20230023559A1, “ARYLMETHYLENE HETEROCYCLIC COMPOUNDS AS KV1.3 POTASSIUM SHAKER CHANNEL BLOCKERS” (D. E. Shaw Research, LLC, priority 2019, published 2023).

Structures are written as SMILES.

In one experiment the target is T1, Kv1.3 potassium channel (Homo sapiens, UniProt P22001).
T1 construct: expressed in transfected cells
Put plainly: Kv1.3 potassium channel blocker activity, automated whole-cell patch clamp (Patchliner). It counts as cell-based. As to conditions: CHO-K1 cells stably expressing Kv1.3; whole cell current inhibition; read-out: Kv1.3_IC50. The procedure, abridged:
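CHO-K1 cells stably expressing Kv1.3, automated whole-cell patch clamp. Currents evoked by 100 ms steps from −90 mV holding to +40 mV at 0.1 Hz, sampled at 10 kHz unfiltered, P/4 leak subtraction; peak current inhibition measured, compound incubation ≤10 s between pulse trains.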

The target in another experiment is hERG channel (Homo sapiens, UniProt Q12809). Put plainly: hERG electrophysiology, automated whole-cell patch clamp (Patchliner).
hERG channel, sequence (Q12809 whole entry): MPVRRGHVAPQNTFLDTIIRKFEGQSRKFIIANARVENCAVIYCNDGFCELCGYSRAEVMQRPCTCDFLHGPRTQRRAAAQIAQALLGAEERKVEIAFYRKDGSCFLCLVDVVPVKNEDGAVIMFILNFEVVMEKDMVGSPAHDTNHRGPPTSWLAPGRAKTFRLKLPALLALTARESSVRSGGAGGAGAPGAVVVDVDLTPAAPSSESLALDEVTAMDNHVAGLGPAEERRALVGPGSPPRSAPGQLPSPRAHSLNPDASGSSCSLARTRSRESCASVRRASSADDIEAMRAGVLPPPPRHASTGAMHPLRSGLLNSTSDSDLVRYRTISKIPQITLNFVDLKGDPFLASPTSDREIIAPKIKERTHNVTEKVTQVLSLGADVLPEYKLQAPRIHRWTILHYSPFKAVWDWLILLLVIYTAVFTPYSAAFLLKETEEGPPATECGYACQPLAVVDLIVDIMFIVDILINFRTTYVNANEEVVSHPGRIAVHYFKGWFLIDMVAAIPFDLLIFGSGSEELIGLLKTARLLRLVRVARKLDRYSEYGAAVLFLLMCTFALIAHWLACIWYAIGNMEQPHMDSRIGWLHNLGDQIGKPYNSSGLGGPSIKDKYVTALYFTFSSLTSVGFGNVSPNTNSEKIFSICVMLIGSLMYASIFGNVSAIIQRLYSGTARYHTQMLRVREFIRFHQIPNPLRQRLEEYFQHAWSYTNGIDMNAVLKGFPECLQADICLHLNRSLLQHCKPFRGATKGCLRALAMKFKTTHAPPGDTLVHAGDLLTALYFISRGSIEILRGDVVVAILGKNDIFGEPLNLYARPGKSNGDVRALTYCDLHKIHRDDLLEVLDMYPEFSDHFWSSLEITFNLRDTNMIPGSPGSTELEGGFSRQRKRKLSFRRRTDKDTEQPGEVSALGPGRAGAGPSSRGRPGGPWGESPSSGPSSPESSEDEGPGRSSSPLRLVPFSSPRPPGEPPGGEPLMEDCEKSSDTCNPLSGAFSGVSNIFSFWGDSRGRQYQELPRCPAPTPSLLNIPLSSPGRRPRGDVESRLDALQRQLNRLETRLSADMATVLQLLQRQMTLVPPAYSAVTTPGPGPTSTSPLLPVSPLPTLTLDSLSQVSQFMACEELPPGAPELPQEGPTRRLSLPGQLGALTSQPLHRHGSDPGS

What is called IC50 is the midpoint of a concentration-inhibition curve.

T1 sequence (P22001 whole entry): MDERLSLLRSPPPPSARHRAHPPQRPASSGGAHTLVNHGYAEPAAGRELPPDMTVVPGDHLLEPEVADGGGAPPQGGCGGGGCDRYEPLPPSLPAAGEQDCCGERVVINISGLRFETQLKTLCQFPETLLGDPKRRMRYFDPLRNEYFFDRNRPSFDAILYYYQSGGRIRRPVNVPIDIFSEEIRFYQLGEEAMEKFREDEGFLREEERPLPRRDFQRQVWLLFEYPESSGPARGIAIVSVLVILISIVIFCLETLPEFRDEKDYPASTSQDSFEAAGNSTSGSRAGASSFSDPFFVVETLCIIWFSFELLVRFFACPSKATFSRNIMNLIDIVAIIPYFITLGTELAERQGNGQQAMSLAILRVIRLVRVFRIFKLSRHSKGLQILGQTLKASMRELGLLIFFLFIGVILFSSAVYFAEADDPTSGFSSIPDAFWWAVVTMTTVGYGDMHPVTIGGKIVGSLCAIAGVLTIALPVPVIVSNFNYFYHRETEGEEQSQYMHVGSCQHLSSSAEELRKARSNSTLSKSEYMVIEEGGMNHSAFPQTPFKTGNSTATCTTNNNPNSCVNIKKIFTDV

Consider `Cc1cc(O)c([C@H](N)C2CCN(C(=O)c3ccc(=O)n(C)c3)CC2)cc1Cl` [Compound 239, 5-[4-[(R)-amino (5-chloro-2-hydroxy-4-methylphenyl)methyl]piperidine-1-carbonyl]-1-methylpyridin-2(1H)-one trifluoroacetic acid], for which the IC50 at Kv1.3 potassium channel was less than 0.5 µM; at hERG channel, more than 30 µM.

Turning to `Cc1cc(O)c([C@H](N)C2CCN(C(=O)c3c[nH]c(=O)c(Cl)c3)CC2)cc1Cl` [Compound 241, 5-[4-[(R)-amino (5-chloro-2-hydroxy-4-methylphenyl)methyl]piperidine-1-carbonyl]-3-chloro-1H-pyridin-2-one trifluoro-acetic acid], the values for the half-maximal inhibitory concentration (IC50) at Kv1.3 potassium channel and against hERG channel were less than 0.5 µM and more than 30 µM, respectively.

On to `Oc1cc(Cl)c(Cl)cc1C(O)C1CCNCC1` (centres unmarked) [Compound 2, 4,5-dichloro-2-[hydroxy(piperidin-4-yl)methyl]phenol], for which the IC50 at Kv1.3 potassium channel was less than 10 µM; at hERG channel, more than 30 µM.

Regarding `N[C@@H](c1cc(Cl)c(Cl)cc1O)C1CCN(C(=O)[C@@H]2CNC(=O)C2)CC1` (single isomer, unassigned; isomer 1) [Compound 296], the IC50 was less than 0.5 µM at Kv1.3 potassium channel and more than 30 µM against hERG channel.

On to `N[C@@H](c1cc(Cl)c(Cl)cc1O)C1CCN(C(=O)CO)CC1` [Compound 135, 1-[4-[(R)-amino(4,5-dichloro-2-hydroxyphenyl)methyl]piperidin-1-yl]-2-hydroxyethan-1-one trifluoroacetic acid], for which the half-inhibitory concentration (IC50) at Kv1.3 potassium channel was less than 0.5 µM; against hERG channel it was more than 30 µM.

Turning to `N[C@@H](c1cc(Cl)c(Cl)cc1O)C1CCN(C(=O)N2CC(O)C2)CC1` [Compound 148, 1-[4-[(R)-amino(4,5-dichloro-2-hydroxyphenyl)methyl]piperidine-1-carbonyl]azetidin-3-ol Trifluoroacetic Acid], the IC50 was less than 0.5 µM on Kv1.3 potassium channel and more than 30 µM at hERG channel.

Consider `N[C@@H](c1cc(Cl)c(Cl)cc1O)C1CCN(C(=O)c2c[nH]c(=O)cn2)CC1` [Compound 186, (R)-5-(4-(amino(4,5-dichloro-2-hydroxyphenyl)methyl)piperidine-1-carbonyl) pyrazin-2(1H)-one], for which the IC50 on Kv1.3 potassium channel was less than 0.5 µM; at hERG channel, more than 30 µM.

For the compound `NC(c1cc(Cl)c(Cl)cc1O)C1CCNCC1` (centres unmarked) [Compound 1, 2-(amino(piperidin-4-yl)methyl)-4,5-dichlorophenol Trifluoroacetic Acid], the IC50 on Kv1.3 potassium channel was less than 10 µM; against hERG channel, more than 30 µM.

Turning to `N[C@@H](c1cc(Cl)c(Cl)cc1O)C1CCN(C(=O)C2CC3(CC(O)C3)C2)CC1` (stereo partly drawn) [Compound 320, 6-[4-[(R)-amino(4,5-dichloro-2-hydroxyphenyl)methyl]piperidine-1-carbonyl]spiro [3.3]heptan-2-ol trifluoroacetic acid], the IC50 was less than 10 µM on Kv1.3 potassium channel and less than 30 µM at hERG channel.

On to `NCC(=O)N1CCC([C@@H](N)c2cc(Cl)c(Cl)cc2O)CC1` [Compound 92, 2-amino-1-[4-[(R)-amino(4,5-dichloro-2-hydroxyphenyl)methyl]piperidin-1-yl]ethan-1-one Trifluoroacetic Acid], for which the IC50 at Kv1.3 potassium channel is less than 0.5 µM; at hERG channel, more than 30 µM.

With `CC(C)(O)CC(=O)N1CCC(C(N)c2cc(Cl)c(Cl)cc2O)CC1` (centres unmarked) [Compound 49, 1-(4-(amino(4,5-dichloro-2-hydroxyphenyl)methyl)piperidin-1-yl)-3-hydroxyl-3-methylbutan-1-one trifluoroacetic acid], the figures for the IC50 on Kv1.3 potassium channel and at hERG channel were less than 10 µM and less than 30 µM, respectively.

For `N[C@@H](c1cc(Cl)c(Cl)cc1O)C1CCN(C(=O)[C@@H]2CCNC2)CC1` (single isomer, unassigned) [Compound 80], the results for the IC50 on Kv1.3 potassium channel and against hERG channel were less than 0.5 µM and more than 30 µM, respectively.

With `CC1CN(C(=O)[C@H](O)CO)CCC1[C@@H](N)c1cc(Cl)c(Cl)cc1O` (single isomer, unassigned; isomer 1) [Compound 331], the IC50 at Kv1.3 potassium channel was less than 0.5 µM; against hERG channel, more than 30 µM.

`N[C@@H](c1cc(Cl)c(Cl)cc1O)C1CCN(C(=O)C2CNC2)CC1` [Compound 83, 2-[(R)-amino[1-(azetidine-3-carbonyl)piperidin-4-yl]methyl]-4,5-dichlorophenol Trifluoroacetic Acid]: the IC50 on Kv1.3 potassium channel was less than 0.5 µM; against hERG channel, more than 30 µM.

On to `Cc1cc([C@H](N)C2CCN(C(=O)[C@H](O)CO)CC2)c(O)cc1Cl` [Compound 198, (2R)-1-[4-[(R)-amino(4-chloro-2-hydroxy-5-methylphenyl)methyl]piperidin-1-yl]-2,3-dihydroxypropan-1-one], for which the results for the IC50 on Kv1.3 potassium channel and on hERG channel were less than 10 µM and more than 30 µM, respectively.

On to `CC(C)C(=O)N1CCC(C(N)c2cc(Cl)c(Cl)cc2O)CC1` (centres unmarked) [Compound 43, 1-[4-[amino(4,5-dichloro-2-hydroxyphenyl)methyl]piperidin-1-yl]-2-methylpropan-1-one Trifluoroacetic Acid], for which the figures for the IC50 on Kv1.3 potassium channel and at hERG channel were less than 10 µM and less than 30 µM, respectively.

`CC1(C(=O)N2CCC([C@@H](N)c3cc(Cl)c(Cl)cc3O)CC2)CNC1` [Compound 109, (R)-(4-(amino(4,5-dichloro-2-hydroxyphenyl)methyl)piperidin-1-yl)(3-methylazetidin-3-yl)methanone]: the IC50 on Kv1.3 potassium channel was less than 0.5 µM; against hERG channel, more than 30 µM.

Turning to `C[C@H](O)[C@H](N)C(=O)N1CCC([C@@H](N)c2cc(Cl)c(Cl)cc2O)CC1` [Compound 175, (2S,3S)-2-amino-1-[4-[(R)-amino(4,5-dichloro-2-hydroxyphenyl)methyl]piperidin-1-yl]-3-hydroxybutan-1-one bis trifluoroacetic acid], the IC50 is less than 0.5 µM on Kv1.3 potassium channel and more than 30 µM against hERG channel.

On to `CCc1cc(O)c([C@H](N)C2CCN(C(=O)[C@H](O)CO)CC2)cc1Cl` [Compound 292, (2R)-1-[4-[(R)-amino(5-chloro-4-ethyl-2-hydroxyphenyl)methyl]piperidin-1-yl]-2,3-dihydroxypropan-1-one Trifluoroacetic Acid], for which the IC50 at Kv1.3 potassium channel was less than 0.5 µM; at hERG channel it was more than 30 µM.

Consider `COC[C@H](O)C(=O)N1CCC([C@@H](N)c2cc(Cl)c(Cl)cc2O)CC1` [Compound 181, (2S)-1-[4-[(R)-amino(4,5-dichloro-2-hydroxyphenyl)methyl]piperidin-1-yl]-2-hydroxy-3-methoxypropan-1-one trifluoroacetic acid], for which the IC50 on Kv1.3 potassium channel is less than 0.5 µM; against hERG channel it was more than 30 µM.

`C[C@H](CO)C(=O)N1CCC([C@@H](N)c2cc(Cl)c(Cl)cc2O)CC1` [Compound 304, (2R)-1-[4-[(R)-amino(4,5-dichloro-2-hydroxyphenyl)methyl]piperidin-1-yl]-3-hydroxy-2-methylpropan-1-one]: the IC50 is less than 0.5 µM on Kv1.3 potassium channel and more than 30 µM against hERG channel.

For the compound `CN1CC[C@@H](C(=O)N2CCC([C@@H](N)c3cc(Cl)c(Cl)cc3O)CC2)C1` [Compound 104, 2-[(R)-amino([1-[(3R)-1-methylpyrrolidine-3-carbonyl]piperidin-4-yl])methyl]-4,5-dichlorophenol], the IC50 on Kv1.3 potassium channel is less than 0.5 µM; at hERG channel it was more than 30 µM.

For `Cc1cc(O)c([C@H](N)C2CCN(C(=O)c3c[nH]c(=O)c(C)c3)CC2)cc1Cl` [Compound 262, 5-[4-[(R)-amino (5-chloro-2-hydroxy-4-methylphenyl)methyl]piperidine-1-carbonyl]-3-methyl-1H-pyridin-2-one trifluoroacetic acid], the IC50 at Kv1.3 potassium channel was less than 0.5 µM; at hERG channel, more than 30 µM.

For `Oc1cc(Cl)c(Cl)cc1[C@@H](O)C1CCNCC1` (single isomer, unassigned) [Compound 6], the IC50 was less than 10 µM on Kv1.3 potassium channel and more than 30 µM against hERG channel.

On to `N[C@H](c1c(O)cc(Cl)c(Cl)c1Cl)C1CCNCC1` (single isomer, unassigned) [Compound 60, Trifluoroacetic Acid], for which the values for the half-inhibitory concentration (IC50) on Kv1.3 potassium channel and at hERG channel were less than 30 µM and more than 30 µM, respectively.

In the case of `N[C@@H](c1cc(Cl)c(Cl)cc1O)C1CCN(C(=O)C2CC(O)(CO)C2)CC1` (stereo partly drawn) [Compound 213, 2-[(R)-amino([1-[3-hydroxy-3-(hydroxymethyl)cyclobutane-carbonyl]piperidin-4-yl])methyl]-4,5-dichlorophenol trifluoroacetic acid], the results for the IC50 on Kv1.3 potassium channel and against hERG channel were less than 0.5 µM and more than 30 µM, respectively.

In the case of `Cc1cc(O)c([C@H](N)C2CCN(C(=O)c3ccc(=O)[nH]c3)CC2)c(F)c1Cl` [Compound 272, 5-[4-[(R)-amino(3-chloro-2-fluoro-6-hydroxy-4-methylphenyl)methyl]piperidine-1-carbonyl]-1H-pyridin-2-one Trifluoroacetic Acid], the concentration for half-maximal inhibition (IC50) was less than 0.5 µM at Kv1.3 potassium channel and more than 30 µM against hERG channel.

Turning to `N[C@@H](c1cc(Cl)c(Cl)cc1O)C1CCN(C(=O)c2c[nH]c3ccccc23)CC1` [Compound 204, (R)-(4-(amino(4,5-dichloro-2-hydroxyphenyl)methyl)piperidin-1-yl)(1H-indol-3-yl)methanone trifluoroacetic acid], the IC50 at Kv1.3 potassium channel is less than 10 µM; against hERG channel it was less than 30 µM.

Turning to `N[C@@H](c1cc(Cl)c(Cl)cc1O)C1CCN(c2ccc(O)nc2)CC1` [Compound 302, (R)-5-(4-(amino(4,5-dichloro-2-hydroxyphenyl)methyl)piperidin-1-yl)pyridin-2-ol], the values for the IC50 on Kv1.3 potassium channel and against hERG channel were less than 10 µM and more than 30 µM, respectively.

With `CN(C)CC(=O)N1CCC([C@@H](N)c2cc(Cl)c(Cl)cc2O)CC1` [Compound 89, (R)-1-(4-(amino(4,5-dichloro-2-hydroxyphenyl)methyl)piperidin-1-yl)-2-(dimethylamino)ethanone], the IC50 at Kv1.3 potassium channel is less than 0.5 µM; at hERG channel, more than 30 µM.

With `N[C@@H](c1cc(Cl)c(Cl)cc1O)C1CCN(C(=O)NCCO)CC1` [Compound 209, 4-[(R)-amino(4,5-dichloro-2-hydroxyphenyl)methyl]-N-(2-hydroxyethyl)piperidine-1-carboxamide Trifluoroacetic Acid], the IC50 on Kv1.3 potassium channel was less than 0.5 µM; against hERG channel, more than 30 µM.
